# From patent publication US20230158025A1 (UNIVERSITY OF UTAH RESEARCH FOUNDATION, priority 2020, published 2023)
# Where two headings read alike, the source gives them in different places.
# How the values were obtained:
# [1] = biological target: recombinant human GALK1 (Homo sapiens, UniProt P51570); test: hGALK1 biochemical activity assay (Kinase-Glo Plus, ATP depletion)
# How it was run: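 Turnover is measured as ATP depletion by Kinase-Glo Plus luminescence after a 1 h room-temperature reaction. Compounds span 11 concentrations, 57.4 μM–0.97 nM, in final 20 mM HEPES pH 8.0 with 5 mM MgCl2. The substrate solution held 35 μM ATP; the added solution held 5 nM human or mouse GALK1 and 100 μM galactose.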
# [2] = biological target: recombinant mouse GALK1 (Mus musculus, UniProt Q9R0N0); test: mGALK1 biochemical activity assay (Kinase-Glo Plus, ATP depletion)
# How it was run: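 Recombinant GALK1 (5 nM) with 100 μM galactose; GALK1 turnover read as ATP depletion by Kinase-Glo Plus luminescence. Reaction ran 1 h at room temperature before detection reagent was added.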
# [3] = biological target: T1, hGALK1m (Homo sapiens, UniProt P51570, E253A/K252A); test: in vitro hGALK1 activity assay of the structure-based optimisation (Example 12, Tables 17-20); type: biochemical; conditions: for fold improvement of potency (IC50) versus parent compound: increase in potency relative to the unsubstituted parent
# T1 construct: made in house; host or cells: E. coli HMS174
# [4] = biological target: T1, hGALK1m; test: surface plasma resonance (SPR) binding; conditions: SPR at 4° C.
# Procedure: Further characterization of the two lead compounds thus far, Compound 1 and Compound 3, with surface plasma resonance (SPR), confirmed that these compounds bind to hGALK1m tightly. Their KDs were 23 nM and 12 nM respectively at 4° C. (FIGS. 4A and 3B). We attempted to co-crystalize these two compounds with hGALK1m, but only succeeded with Compound 1. […] Even with a fluorine substitution at C6 position, the benzoxazole ring of Compound 1 absolutely overlapped with that of Compound A (FIG. 4D). […] The decahydroquinazoline ring was opened in Compound 1, but the hydrogen bond between ketone group and Arg 105 remained intact, and Arg 105 moved closer to the ketone group in the crystal structure with Compound 1 (FIG. 4E). In addition, the amide's nitrogen atom formed a hydrogen bond with Tyr 109 (FIG. 4E), which could clarify why substituting the closed ring with opened amide structure improves the compound's activity. The isonicotinic acid moiety extended outside of the enzyme's active center and was solvent exposed (FIG. 4C).
# [5] = PAMPA permeability; conditions: PAMPA
# [6] = aqueous kinetic solubility
# [7] = rat microsomal stability (RLM); conditions: for half-life: rat, rat liver microsomes
# [8] = recombinant human GALK1, Kinase-Glo Plus ATP depletion, read-out: hGALK
# [9] = Tables 2-15, 35 μM ATP, 100 μM galactose, 1 h, bracketed figure after some values is undefined and not reported, read-out: mGALK IC50
# [10] = recombinant mouse GALK1, Kinase-Glo Plus ATP depletion, read-out: mGALK
# [11] = Tables 18-19, read-out: Max Response (%)
# [12] = Tables 18-20 and text of Example 12
# [13] = ADME P: PAMPA permeability (class), Tables 17-19, class probably colour-coded, colour lost
# [14] = Tables 2-15, 35 μM ATP, 100 μM galactose, 1 h, bracketed figure after some values (e.g. −1.2) is undefined and not reported, read-out: hGALK IC50
# [15] = 1 h, Table 17, read-out: Efficacy
# [16] = Table 17, amide group optimization, no unit in table
# T1 sequence (P51570 whole entry K252A/E253A): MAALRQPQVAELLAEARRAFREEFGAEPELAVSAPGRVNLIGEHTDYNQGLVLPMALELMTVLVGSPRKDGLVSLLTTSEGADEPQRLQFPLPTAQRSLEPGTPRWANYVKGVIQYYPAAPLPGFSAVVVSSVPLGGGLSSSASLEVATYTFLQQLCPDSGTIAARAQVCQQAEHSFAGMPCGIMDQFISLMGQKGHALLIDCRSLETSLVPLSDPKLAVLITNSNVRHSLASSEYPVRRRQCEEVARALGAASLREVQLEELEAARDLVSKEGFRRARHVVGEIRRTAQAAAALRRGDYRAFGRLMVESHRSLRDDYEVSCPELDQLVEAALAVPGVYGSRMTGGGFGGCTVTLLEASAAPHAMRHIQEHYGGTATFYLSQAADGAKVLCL
# recombinant human GALK1, sequence (P51570 whole entry): as the sequence (P51570 whole entry K252A/E253A) above, with A252K, A253E counted along it
# recombinant mouse GALK1, sequence (Q9R0N0 whole entry): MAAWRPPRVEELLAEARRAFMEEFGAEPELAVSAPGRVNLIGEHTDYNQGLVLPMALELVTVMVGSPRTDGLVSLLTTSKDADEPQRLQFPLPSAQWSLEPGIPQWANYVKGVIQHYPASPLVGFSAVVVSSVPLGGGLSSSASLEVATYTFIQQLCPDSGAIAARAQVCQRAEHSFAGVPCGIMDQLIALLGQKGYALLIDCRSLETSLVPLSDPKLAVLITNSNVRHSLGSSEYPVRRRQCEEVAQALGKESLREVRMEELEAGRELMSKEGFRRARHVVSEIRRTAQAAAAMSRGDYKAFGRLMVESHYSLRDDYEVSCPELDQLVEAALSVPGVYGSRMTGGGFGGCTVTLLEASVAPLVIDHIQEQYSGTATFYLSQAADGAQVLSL
"IC50 [1, 8] [µM]","IC50 [2, 9] [µM]","IC50 [2, 10] [µM]","Emax [3, 11] [%]","IC50 [3, 12] [µM]",fold improvement of potency (IC50) versus parent compound [3] [fold],Kd [4] [µM],"Papp [5, 13] [×10⁻⁶ cm/s]",Papp ([5]; Perm. (1 × 10^−6 cm/sec)) [×10⁻⁶ cm/s],Sol. [6] [µg/mL],Metab. Stabil. (m) ([7]; microsomal half-life),half-life [7] [min],"IC50 [1, 14] [µM]","Emax [3, 15] [%]","IC50 [3, 16] [µM]",Perm. (1 × 10^−6 cm/sec) [5],Sol. ([6]; aqueous kinetic solubility) [µg/mL],Metab. Stabil. (m) ([7]; microsomal stability half-life),change of potency versus parent compound (in words) [3],Structure (SMILES)
15.3,13.7,13.7,,,,,< 10,,,,< 10,,94,11,>1113 1 × 10^−6 cm/sec,23.0,6.415,,CC1=C(C(=O)NCc2nccn2C)C(c2ccccc2Cl)N=C(Nc2nc3ccccc3o2)N1 (stereo not shown) [Compound 231]
1.93,12.2,12.2,,,,,< 10,,,,< 10,1.93,84,1.2,507.4 1 × 10^−6 cm/sec,<1,6.432,,"CC1=C(C(=O)NCc2cncs2)C(c2ccccc2Cl)N=C(Nc2nc3ccccc3o2)N1 (stereo not shown) [Compound 232, 2-(benzo[d]oxazol-2-ylamino)-4-(2-chlorophenyl)-6-methyl-N-(thiazol-5-ylmethyl)-1,4-dihydropyrimidine-5-carboxamide]"
8.63,13.7,13.7,,,,,< 10,,,,< 10,8.63,48,,,<1,4.516,significantly impaired the potency,"CC1=C(C(=O)NCc2nc3ccccc3n2C)C(c2ccccc2Cl)N=C(Nc2nc3ccccc3o2)N1 (stereo not shown) [Compound 234, 2-(benzo[d]oxazol-2-ylamino)-4-(2-chlorophenyl)-6-methyl-N-((1-methyl-1H-benzo[d]imidazol-2-yl)methyl)-1,4-dihydropyrimidine-5-carboxamide]"

# Continued, compound first:
Structure (SMILES),"IC50 [1, 8] [µM]","IC50 [2, 9] [µM]","IC50 [2, 10] [µM]","Emax [3, 11] [%]","IC50 [3, 12] [µM]",fold improvement of potency (IC50) versus parent compound [3] [fold],Kd [4] [µM],"Papp [5, 13] [×10⁻⁶ cm/s]",Papp ([5]; Perm. (1 × 10^−6 cm/sec)) [×10⁻⁶ cm/s],Sol. [6] [µg/mL],Metab. Stabil. (m) ([7]; microsomal half-life),half-life [7] [min],"IC50 [1, 14] [µM]","Emax [3, 15] [%]","IC50 [3, 16] [µM]",Perm. (1 × 10^−6 cm/sec) [5],Sol. ([6]; aqueous kinetic solubility) [µg/mL],Metab. Stabil. (m) ([7]; microsomal stability half-life),change of potency versus parent compound (in words) [3]
"CC1=C(C(=O)Nc2cc(C(=O)O)ccn2)C(c2ccccc2Cl)N=C(Nc2nc3ccc(F)cc3o2)N1 (racemic) [Compound 1, 2-(4-(2-chlorophenyl)-2-((6-fluorobenzo[d]oxazol-2-yl)amino)-6-methyl-1,4-dihydropyrimidine-5-carboxamido)isonicotinic acid]",0.68,4.32,4.32,100,0.26,~4,0.023,< 10,< 1,46.1,>30,< 10,,,,,,,
"CC1=C(C(=O)Nc2cc(C(=O)O)ccn2)C(c2ccccc2Cl)N=C(Nc2nc3cccc(N)c3o2)N1 (racemic) [Compound 3, 2(2-((7-aminobenzo[d]oxazol-2-yl)amino)-4-(2-chlorophenyl)-6-methyl-1,4-dihydropyrimidine-5-carboxamido)isonicotinic acid]",0.22,3.43,3.43,100,0.077,13,0.012,< 10,< 1,>76,>30,< 10,0.22,,,,,,
"CC1=C(C(=O)Nc2cccc(C(=O)O)c2)C(c2ccccc2Cl)N=C(Nc2nc3ccccc3o2)N1 (stereo not shown) [Compound 142, 3-(2-(benzo[d]oxazol-2-ylamino)-4-(2-chlorophenyl)-6-methyl-1,4-dihydropyrimidine-5-carboxamido)benzoic acid]",2.43,6.11,6.11,,,,,< 10,,,,< 10,,96,3.1,<1 1 × 10^−6 cm/sec,59.1,>30,
"CC1=C(C(=O)Nc2ccc(C(=O)O)cc2)C(c2ccccc2Cl)N=C(Nc2nc3ccccc3o2)N1 (stereo not shown) [Compound 143, 4-(2-(benzo[d]oxazol-2-ylamino)-4-(2-chlorophenyl)-6-methyl-1,4-dihydropyrimidine-5-carboxamido)benzoic acid]",,6.11,6.11,,,,,< 10,,,,< 10,1.53,100,1.4,3.6 1 × 10^−6 cm/sec,<1,>30,
"CC1=C(C(=O)Nc2nnc(C)s2)C(c2ccccc2Cl)N=C(Nc2nc3ccccc3o2)N1 (stereo not shown) [Compound 173, 2-(benzo[d]oxazol-2-ylamino)-4-(2-chlorophenyl)-6-methyl-N-(5-methyl-1,3,4-thiadiazol-2-yl)-1,4-dihydropyrimidine-5-carboxamide]",,10.9,,,,,,< 10,,,,< 10,5.44,95,3.9,23.75 1 × 10^−6 cm/sec,<1,>30,
"CC1=C(C(=O)Nc2nncs2)C(c2ccccc2Cl)N=C(Nc2nc3ccccc3o2)N1 (stereo not shown) [Compound 205, 2-(benzo[d]oxazol-2-ylamino)-4-(2-chlorophenyl)-6-methyl-N-(1,3,4-thiadiazol-2-yl)-1,4-dihydropyrimidine-5-carboxamide]",3.85,7.69,7.69,,,,,< 10,,,,< 10,3.85,96,3.4,207.3 1 × 10^−6 cm/sec,<1,>30,
"CC1=C(C(=O)NCc2cncn2C)C(c2ccccc2Cl)N=C(Nc2nc3ccccc3o2)N1 (stereo not shown) [Compound 230, 2-(benzo[d]oxazol-2-ylamino)-4-(2-chlorophenyl)-6-methyl-N-((1-methyl-1H-imidazol-5-yl)methyl)-1,4-dihydropyrimidine-5-carboxamide]",1.72,6.85,6.85,,,,,< 10,,,,< 10,,98,1.4,98.8 1 × 10^−6 cm/sec,42.0,8.8722,
